# According to patent publication US9932354B2, “Imidazo-oxadiazole and imidazo-thiadiazole derivatives” (Ares Trading S.A., priority 2012, dated 2018):
# Assays:
# [1] = system: Amyloid-β peptide release (AβTotal), HEK cells overexpressing APP (HEK-APP); test: Amyloid-β peptide release (AβTotal) assay, AlphaLISA on supernatant of HEK-APP cells; assay type: cell-based; details: ratio Abtot vs Ab42, HEK-APP cells, 24 h
# Protocol: (§1) Amyloid-β Peptide Release (Aβ42 & AβTotal) Assay to Determine IC50 Values.
# (§2) Compounds are dissolved in and diluted in 100% DMSO and incubated with HEK-APP cells for 24 h at 37° C. in 5% CO2. The supernatant from HEK-APP cells are mixed with antibodies: for Aβ42 detection: AlphaLISA Amyloid-β 1-42 Kit (Perkin Elmer AL203L) Anti-Amyloid β1-42-specific antibody acceptor beads, biotinylated anti-Amyloid-“β1-42” antibody and streptavidin (SA) donor beads diluted in AlphaLISA buffer (to the instructions of the supplier). For Aβ total detection: Custom Anti-Amyloid-βtotal acceptor beads (6E10 acceptor beads), biotinylated anti-Amyloid “β1-42” antibody (Perkin Elmer AL203L) and streptavidin (SA) donor beads diluted in AlphaLISA buffer (to the instructions of the supplier). After addition of supernatant to the antibody mix, the assay is incubated for 4.5 h. Amyloid-β peptide release (Aβ42 & AβTotal) is measured with a Pherastar FS (BMG) multimode reader using the alphascreen module.
# [2] = system: Amyloid-β peptide release (Aβ42), HEK cells overexpressing APP (HEK-APP); test: Amyloid-β peptide release (Aβ42) assay, AlphaLISA on supernatant of HEK-APP cells; assay type: cell-based; details: Homo sapiens, HEK293, 24 h incubation with compound, read-out: Ab42 IC50 Ranges
# Protocol: as §1, §2
SMILES,Abtot/Ab42 selectivity ranges [1],IC50 [2] [nM]
"Cc1ncc2sc(C(=O)N3CCC[C@H]3c3ccc(Br)cc3)nn12 [Example 114, (S)-(2-(4-bromophenyl)pyrrolidin-1-yl) (5-methylimidazo[5,1-b][1,3,4]thiadiazol-2-yl)methanone]",d (d: 10 fold > selectivity),1000 to 2200
"Cc1ncc2oc(-c3ccc(NC(=O)Cc4cccc5ccccc45)cc3)nn12 [Example 71, N-(4-(5-methylimidazo[5,1-b][1,3,4]oxadiazol-2-yl)phenyl)-2-(naphthalen-1-yl)acetamide]",b (b: 100 fold > selectivity ≥ 50 fold),500 to 1000
"Cc1ncc2sc(C(=O)NCc3ccccc3-c3ccccc3)nn12 [Example 111, 5-Methyl-imidazo[5,1-b][1,3,4]thiadiazole-2-carboxylic acid (biphenyl-2-ylmethyl)-amide]",d (d: 10 fold > selectivity),1000 to 2200
"Cc1ncc2oc(-c3ccc(C(=O)NCc4cccc5ccccc45)cc3)nn12 [Example 86, 4-(5-methylimidazo[5,1-b][1,3,4]oxadiazol-2-yl)-N-(naphthalen-1-ylmethyl)benzamide]",b (b: 100 fold > selectivity ≥ 50 fold),500 to 1000
"Cc1ccccc1CC(=O)Nc1ccc(-c2nn3c(C)ncc3o2)cc1 [Example 60, N-[4-(5-Methyl-imidazo[5,1-b][1,2,4]oxadiazol-2-yl)-phenyl]-2-o-tolyl-acetamide]",c (c: 50 fold > selectivity ≥ 10 fold),1000 to 2200
"Cc1ncc2oc(-c3ccc(NC(=O)Nc4ccc(OC(F)(F)F)cc4)cc3)nn12 [Example 59, 1-[4-(5-Methyl-imidazo[5,1-b][1,2,4]oxadiazol-2-yl)-phenyl]-3-(4-trifluoromethoxy-phenyl)-urea]",c (c: 50 fold > selectivity ≥ 10 fold),1000 to 2200
"Cc1ncc2sc(C(=O)NCc3cccc4ccccc34)nn12 [Example 105, 5-methyl-N-(naphthalen-1-ylmethyl)imidazo[5,1-b][1,3,4]thiadiazole-2-carboxamide]",d (d: 10 fold > selectivity),500 to 1000
"COc1cc(NC(=O)Cc2cccc(C(F)(F)F)c2)ccc1-c1nn2c(C)ncc2o1 [Example 31, N-(3-methoxy-4-(5-methylimidazo[5,1-b][1,3,4]oxadiazol-2-yl)phenyl)-2-(3-(trifluoromethyl)phenyl)acetamide]",a (a: selectivity ≥ 100 fold),100 to 500
"CCC(C(=O)Nc1ccc(-c2nn3c(C)ncc3o2)nc1)c1ccccc1 (stereo not shown) [Example 85, N-[6-(5-Methyl-imidazo[5,1-b][1,2,4]oxadiazol-2-yl)-pyridin-3-yl]-2-phenyl-butyramide]",c (c: 50 fold > selectivity ≥ 10 fold),1000 to 2200
"Cc1ncc2sc(C(=O)N3CCCC3c3ccc(F)cc3)nn12 (stereo not shown) [Example 124, [2-(4-Fluoro-phenyl)-pyrrolidin-1-yl]-(5-methyl-imidazo[5,1-b][1,3,4]thiadiazol-2-yl)-methanone]",d (d: 10 fold > selectivity),100 to 500
"CCN(Cc1ccccc1)C(=O)c1nn2c(C)ncc2s1 [Example 99, 5-Methyl-imidazo[5,1-b][1,3,4]thiadiazole-2-carboxylic acid benzyl-ethyl-amide]",d (d: 10 fold > selectivity),1000 to 2200
"Cc1ncc2oc(-c3ccc(Nc4ccn(Cc5ccc(Cl)cc5)n4)cc3)nn12 [Example 29, [1-(4-Chloro-benzyl)-1H-pyrazol-3-yl]-[4-(5-methyl-imidazo[5,1-b][1,2,4]oxadiazol-2-yl)-phenyl]-amine]",d (d: 10 fold > selectivity),1000 to 2200
CCc1ncc2oc(-c3ccc(C(=O)NCc4cccc5ccccc45)cc3)nn12 [Example 21],c (c: 50 fold > selectivity ≥ 10 fold),1000 to 2200
Cc1ncc2oc(-c3ccc(NC(=O)Cc4ccc(Cl)cc4Cl)cn3)nn12 [Example 82],c (c: 50 fold > selectivity ≥ 10 fold),1000 to 2200
"Cc1cc(-c2nn3c(C)ncc3o2)ccc1NC(=O)Cc1ccc(OC(F)(F)F)cc1 [Example 45, N-(2-methyl-4-(5-methylimidazo[5,1-b][1,3,4]oxadiazol-2-yl)phenyl)-2-(4-(trifluoromethoxy)phenyl)acetamide]",b (b: 100 fold > selectivity ≥ 50 fold),500 to 1000
"Cc1cc(-c2nn3c(C)ncc3o2)ccc1NC(=O)C(C)c1cccc(C(F)(F)F)c1 (stereo not shown) [Example 46, N-(2-methyl-4-(5-methylimidazo[5,1-b][1,3,4]oxadiazol-2-yl)phenyl)-2-(3-(trifluoromethyl)phenyl)propanamide]",b (b: 100 fold > selectivity ≥ 50 fold),500 to 1000
"Cc1ncc2sc(-c3nnc(NCc4ccc(F)cc4)o3)nn12 [Example 103, (4-Fluoro-benzyl)-[5-(5-methyl-imidazo[5,1-b][1,3,4]thiadiazol-2-yl)-[1,3,4]oxadiazol-2-yl]-amine]",d (d: 10 fold > selectivity),500 to 1000
"Cc1cc(-c2nn3c(C)ncc3o2)ccc1NC(=O)Cc1ccccc1C(F)(F)F [Example 40, N-(2-methyl-4-(5-methylimidazo[5,1-b][1,3,4]oxadiazol-2-yl)phenyl)-2-(2-(trifluoromethyl)phenyl)acetamide]",b (b: 100 fold > selectivity ≥ 50 fold),500 to 1000
"Cc1ncc2oc(-c3ccc(Nc4nc5n(n4)CCCC5c4ccc(Cl)cc4Cl)cc3)nn12 (stereo not shown) [Example 25, [8-(2,4-Dichloro-phenyl)-5,6,7,8-tetrahydro-[1,2,4]triazolo[1,5-a]pyridin-2-yl]-[4-(5-methyl-imidazo[5,1-b][1,2,4]oxadiazol-2-yl)-phenyl]-amine]",c (c: 50 fold > selectivity ≥ 10 fold),500 to 1000
"Cc1ncc2sc(-c3nnc(NCc4ccc(Cl)c(Cl)c4)o3)nn12 [Example 102, (3,4-Dichloro-benzyl)-[5-(5-methyl-imidazo[5,1-b][1,3,4]thiadiazol-2-yl)-[1,3,4]oxadiazol-2-yl]-amine]",d (d: 10 fold > selectivity),100 to 500
"COc1cc(C(=O)NCc2cccc3ccccc23)ccc1-c1nn2c(C)ncc2o1 [Example 20, 3-Methoxy-4-(5-methyl-imidazo[5,1-b][1,2,4]oxadiazol-2-yl)-N-naphthalen-1-ylmethyl-benzamide]",c (c: 50 fold > selectivity ≥ 10 fold),1000 to 2200
"Cc1ncc2oc(-c3ccc(NC(=O)Cc4ccc(Cl)cc4Cl)cc3)nn12 [Example 62, 2-(2,4-dichlorophenyl)-N-(4-(5-methylimidazo[5,1-b][1,3,4]oxadiazol-2-yl)phenyl)acetamide]",b (b: 100 fold > selectivity ≥ 50 fold),500 to 1000
"Cc1cc(C)cc(CC(=O)Nc2ccc(-c3nn4c(C)ncc4o3)cc2)c1 [Example 51, 2-(3,5-Dimethyl-phenyl)-N-[4-(5-methyl-imidazo[5,1-b][1,2,4]oxadiazol-2-yl)-phenyl]-acetamide]",c (c: 50 fold > selectivity ≥ 10 fold),500 to 1000
